Test: xn = mol fraction of the nth substance listed
Conditions: 101 kPa, x2 = 0.0138

CCCC[n+]1ccn(C)c1.N#C[C-](C#N)C#N + O
Conditions | viscosity [mPa·s]
293.15 K | 32.77
298.15 K | 26.47
303.15 K | 21.7
308.15 K | 18.08
313.15 K | 15.3
318.15 K | 13.09
323.15 K | 11.32
338.15 K | 7.748
343.15 K | 6.933
353.15 K | 5.658
358.15 K | 5.155
363.15 K | 4.718

From a compilation of properties of binary mixtures (doi:10.1021/je500765m)
